Measurements taken from US7973034B2, “Amide, aryl sulfonamide, aryl urea, and α,β-diketone derived carboxylesterase inhibitors, and their methods of use” (priority 2003, dated 2011).
Read-outs that look alike come from different tables or passages of the source.

How the values were obtained:
[1] = human plasma in vitro; cited from earlier work
[2] = rat plasma, within 1 hour of incubation; cited from earlier work
[3] = mouse plasma, within 1 hour of incubation; cited from earlier work
[4] = system: carboxylesterases; assay: General carboxylesterase inhibition; format: biochemical
Protocol: Carboxylesterase (CE) inhibition was determined by a spectroscopic assay using o-nitrophenyl acetate (o-NPA) as a substrate. Recombinant CEs produced from expression in Spodoptera frugiperda Sf9 insect cells via baculovirus were purified from serum-free culture media for the enzyme inhibition studies. Enzymes were incubated in 200 μl of 50 mM Hepes (pH 7.4) containing 3 mM o-NPA. Conversion of the o-NPA to nitrophenol was monitored by measuring the change in the absorbance at 420 nm. Absorbance readings were taken every 15 seconds for 2 minutes, and data transferred to a computer data spreadsheet. […] The final DMSO concentration was always 1% or less. […] The above procedure was then repeated using the same assay, with inhibitor concentrations ranging from 1 nM to 100 μM. Results were then transferred to Prism software (GraphPad Software, Inc., San Diego, Calif.) and Ki values determined using sigmoidal curve fits of the data. Routinely, all analyses were performed in duplicate, and Ki values determined using at least 8 inhibitor concentrations.

[5] = system: chicken liver carboxylesterase; conditions: cited from earlier work
[6] = target: T1, human liver carboxylesterase (hCE1) (Homo sapiens, UniProt P23141); assay: biochemical; format: biochemical; conditions: o-NPA as substrate; Table 5; read-out: Ki hCE1
T1 sequence (P23141 18-567): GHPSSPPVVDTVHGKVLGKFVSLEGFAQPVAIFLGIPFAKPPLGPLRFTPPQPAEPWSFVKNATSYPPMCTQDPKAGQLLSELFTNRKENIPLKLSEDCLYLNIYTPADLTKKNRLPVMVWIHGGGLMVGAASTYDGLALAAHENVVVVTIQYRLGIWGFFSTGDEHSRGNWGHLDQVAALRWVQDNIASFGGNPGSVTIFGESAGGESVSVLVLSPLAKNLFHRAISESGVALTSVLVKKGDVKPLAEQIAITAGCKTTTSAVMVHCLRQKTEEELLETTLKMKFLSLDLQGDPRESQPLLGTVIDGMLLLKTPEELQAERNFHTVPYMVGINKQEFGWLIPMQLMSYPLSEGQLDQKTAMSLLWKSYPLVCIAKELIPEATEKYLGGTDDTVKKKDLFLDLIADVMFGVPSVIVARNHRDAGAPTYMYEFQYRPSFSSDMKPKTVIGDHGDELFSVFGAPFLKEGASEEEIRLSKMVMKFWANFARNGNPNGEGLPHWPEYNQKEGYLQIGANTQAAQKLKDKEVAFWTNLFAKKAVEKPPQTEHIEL

[7] = target: T2, hiCE (Homo sapiens, UniProt O00748); assay: Inhibition of hiCE-mediated activation of CPT-11 (SN-38 by HPLC); format: biochemical
T2 sequence (O00748 27-559): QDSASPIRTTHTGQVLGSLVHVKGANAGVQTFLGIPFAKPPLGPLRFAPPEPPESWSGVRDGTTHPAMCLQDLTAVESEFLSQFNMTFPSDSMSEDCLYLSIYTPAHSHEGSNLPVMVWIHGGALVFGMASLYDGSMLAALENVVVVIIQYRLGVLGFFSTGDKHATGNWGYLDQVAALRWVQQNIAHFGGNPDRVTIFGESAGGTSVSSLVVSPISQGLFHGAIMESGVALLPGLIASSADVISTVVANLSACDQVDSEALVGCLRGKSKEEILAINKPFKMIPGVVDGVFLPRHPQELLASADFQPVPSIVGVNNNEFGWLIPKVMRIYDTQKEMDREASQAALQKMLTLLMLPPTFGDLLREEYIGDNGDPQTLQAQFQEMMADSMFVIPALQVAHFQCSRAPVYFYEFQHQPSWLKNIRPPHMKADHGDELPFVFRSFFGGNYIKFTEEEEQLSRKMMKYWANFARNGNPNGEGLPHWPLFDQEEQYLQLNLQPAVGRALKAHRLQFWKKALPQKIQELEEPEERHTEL
Protocol: Since the sulphonamide compounds identified herein are competitive inhibitors of hiCE, their activity is dependant upon the substrate used. To access the ability of these compounds to inhibit the hiCE-mediated activation of CPT-11, Ki values were determined using CPT-11 as the substrate.
CPT-11 concentrations were fixed at […], and inhibitor concentrations varied from 1 nM to 10 μM. Following incubation for an hour at 37° C., the levels of SN-38 in the reaction mixture was determined by High Performance Liquid Chromatography (HPLC).

[8] = target: T3, human acetylcholinesterase (hAcChE) (Homo sapiens, UniProt P22303); assay: biochemical; format: biochemical; conditions: acetylthiocholine substrate; Table 5; read-out: Ki hAcChE
T3 construct: purchased Sigma Biochemicals (St. Louis, Mo.)
T3 sequence (P22303 32-614): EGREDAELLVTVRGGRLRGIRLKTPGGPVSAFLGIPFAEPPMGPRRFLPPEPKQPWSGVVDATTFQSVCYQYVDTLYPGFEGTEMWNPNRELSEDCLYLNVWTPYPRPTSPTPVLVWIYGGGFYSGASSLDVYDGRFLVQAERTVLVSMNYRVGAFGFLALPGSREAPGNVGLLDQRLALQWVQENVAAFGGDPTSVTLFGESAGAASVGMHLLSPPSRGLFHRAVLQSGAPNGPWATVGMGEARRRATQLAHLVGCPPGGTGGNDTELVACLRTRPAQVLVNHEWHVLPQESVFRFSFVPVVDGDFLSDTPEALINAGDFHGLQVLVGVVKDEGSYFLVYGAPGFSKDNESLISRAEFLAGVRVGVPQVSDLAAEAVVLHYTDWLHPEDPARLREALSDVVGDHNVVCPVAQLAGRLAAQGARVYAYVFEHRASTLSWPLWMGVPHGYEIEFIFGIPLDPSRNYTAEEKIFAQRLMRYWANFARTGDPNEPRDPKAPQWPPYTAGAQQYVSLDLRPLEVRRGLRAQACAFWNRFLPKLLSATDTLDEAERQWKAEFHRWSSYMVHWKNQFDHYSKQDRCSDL
Protocol: Data was transferred to GraphPad Prism software, and Ki values were calculated as described in the Example above.

[9] = target: T4, human small intestine carboxylesterase (hiCE) (Homo sapiens, UniProt O00748); assay: biochemical; format: biochemical; conditions: o-NPA as substrate; for Ki: Table 5, read-out: Ki hiCE; for Ki (hCE1)/Ki (hiCE): selectivity ratio
T4 sequence (O00748 27-559): T2 sequence (O00748 27-559)

[10] = target: human butyrylcholinesterase (hBuChE) (Homo sapiens, UniProt P06276); assay: biochemical
Sequence of human butyrylcholinesterase (hBuChE) (P06276 29-602): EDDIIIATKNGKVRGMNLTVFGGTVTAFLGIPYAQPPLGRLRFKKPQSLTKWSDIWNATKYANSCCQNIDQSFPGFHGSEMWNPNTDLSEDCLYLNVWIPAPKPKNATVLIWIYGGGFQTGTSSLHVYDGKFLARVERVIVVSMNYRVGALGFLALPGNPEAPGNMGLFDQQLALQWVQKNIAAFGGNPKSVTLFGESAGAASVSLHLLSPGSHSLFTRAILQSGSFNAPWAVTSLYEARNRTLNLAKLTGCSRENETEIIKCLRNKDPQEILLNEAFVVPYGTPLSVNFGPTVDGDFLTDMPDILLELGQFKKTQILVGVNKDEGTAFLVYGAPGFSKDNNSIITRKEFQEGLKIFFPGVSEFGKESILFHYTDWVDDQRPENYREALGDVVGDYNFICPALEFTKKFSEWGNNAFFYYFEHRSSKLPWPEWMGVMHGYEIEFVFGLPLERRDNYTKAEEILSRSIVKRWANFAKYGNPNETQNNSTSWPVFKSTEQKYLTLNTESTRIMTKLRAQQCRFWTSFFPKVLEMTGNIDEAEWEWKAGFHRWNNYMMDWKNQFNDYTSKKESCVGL

[11] = target: T5, rabbit liver carboxylesterase (rCE) (Oryctolagus cuniculus, UniProt P12337); assay: biochemical; format: biochemical; conditions: o-NPA as substrate; Table 5; read-out: Ki rCE
T5 sequence (P12337 19-565): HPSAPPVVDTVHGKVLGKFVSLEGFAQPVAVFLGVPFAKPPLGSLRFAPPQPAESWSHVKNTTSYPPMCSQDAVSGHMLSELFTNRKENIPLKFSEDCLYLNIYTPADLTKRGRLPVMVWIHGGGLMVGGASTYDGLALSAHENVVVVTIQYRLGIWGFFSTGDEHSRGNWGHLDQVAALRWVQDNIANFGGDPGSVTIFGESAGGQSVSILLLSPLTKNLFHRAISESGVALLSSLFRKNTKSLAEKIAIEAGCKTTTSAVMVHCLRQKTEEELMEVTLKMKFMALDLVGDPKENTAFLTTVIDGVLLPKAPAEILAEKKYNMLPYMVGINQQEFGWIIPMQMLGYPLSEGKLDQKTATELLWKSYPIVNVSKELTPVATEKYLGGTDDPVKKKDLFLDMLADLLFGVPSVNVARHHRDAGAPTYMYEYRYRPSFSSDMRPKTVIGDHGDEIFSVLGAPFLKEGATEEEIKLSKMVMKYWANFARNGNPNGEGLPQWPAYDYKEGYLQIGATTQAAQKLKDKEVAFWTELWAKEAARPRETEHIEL

[12] = target: T6, human intestinal carboxylesterase in U373MGhiCE cells (Homo sapiens, UniProt O00748); assay: Inhibition of intracellular carboxylesterase in U373MGhiCE cells; format: cell-based
T6 construct: expressed in transfected cells; host or cells: U373MG human glioma cells (U373MGhiCE)
T6 sequence (O00748 27-559): T2 sequence (O00748 27-559)
Protocol: To monitor the ability of the compounds to cross the cell membrane and inhibit carboxylesterase activity intracellularly, an assay using human tumor cells expressing hiCE was devised. U373MGhiCE (a human glioma cell line transfected with a plasmid expressing hiCE) were plated in T25 flasks and allowed to grow to confluency (approximately 2-5×10^5 cells). Inhibitors were then added at a final concentration of […], and incubation allowed to continue for 1 hour. At this time, the cells were washed extensively with 5 ml of complete media and 2×5 ml of Hanks balanced salt solution, and cell extracts were prepared. Carboxylesterase activity was then determined using o-NPA as a substrate.
Table 8 sets forth the level of intracellular enzyme inhibition following incubation of human glioblastoma tumor cells expressing human intestinal carboxylesterase with 10 μM of each compound identified in Table 3.

[13] = CPT-11 as substrate (100 μm), 1 hour at 37° C., read-out: Ki hiCE

| Structure (SMILES) | level of activation of CPT-11 by plasma [1] | drug converted to SN-38 [2] | drug converted to SN-38 [3] | found to be general carboxylesterase inhibitors [4] | inhibition of chicken liver carboxylesterase [5] | Ki [6] [µM] | Ki [7, 13] [µM] | Ki [8] [µM] | Ki [9] [µM] | Ki (hCE1)/Ki (hiCE) [9] | Ki [10] [µM] | Ki [11] [µM] | inhibition at 10 µM [12] [%] | Ki [7] [µM] |
| --- | --- | --- | --- | --- | --- | --- | --- | --- | --- | --- | --- | --- | --- | --- |
| CCc1c2c(nc3ccc(OC(=O)N4CCC(N5CCCCC5)CC4)cc13)-c1cc3c(c(=O)n1C2)COC(=O)[C@]3(O)CC [CPT-11, 7-ethyl-10-[4-(1-piperidino)-1-piperidino]carbonyloxycamptothecin] | very low | greater than 50% | greater than 50% |  |  |  |  |  |  |  |  |  |  |  |
| O=C(C(=O)c1ccccc1)c1ccccc1 [Compound 2, Diphenylethane-1,2-dione] |  |  |  | general carboxylesterase inhibitors | inhibition |  |  |  |  |  |  |  |  |  |
| O=S(=O)(Nc1ccc(NS(=O)(=O)c2ccc(Cl)cc2)c2ccccc12)c1ccc(Cl)cc1 [Compound 47, 4-chloro-N-(4-{[(4-chlorophenyl)sulfonyl]amino}-1-naphthyl)benzenesulfonamide] |  |  |  |  |  | > 100 | > 100 | > 100 | 0.194 ± 0.023 | >500 | > 100 | > 100 | 9.2 |  |
| Cc1cc(C)c(S(=O)(=O)Nc2ccccc2)cc1S(=O)(=O)Nc1ccccc1 [Compound 48, 4,6-dimethyl-N,N′-diphenylbenzene-1,3-disulfonamide] |  |  |  |  |  | > 100 | > 100 | > 100 | 0.218 ± 0.045 | >450 | > 100 | > 100 | 8.9 |  |
| Cc1cc(NS(=O)(=O)c2ccccc2)ccc1NS(=O)(=O)c1ccccc1 [Compound 49, N-{2-methyl-4-[(phenylsulfonyl)amino]phenyl}benzene sulfonamide] |  |  |  |  |  | > 100 |  | > 100 | 0.365 ± 0.087 | >250 | > 100 | 3.23 | 7.6 | 0.238 ± 0.029 |
| CS(=O)(=O)Nc1ccc(SSc2ccc(NS(C)(=O)=O)cc2)cc1 [Compound 50, N-[4-({4-[(methylsulfonyl)amino]phenyl}dithio)phenyl]methanesulfonamide] |  |  |  |  |  | > 100 | > 100 | > 100 | 0.767 ± 0.285 | >125 | > 100 | 0.739 ± 0.384 | 14.6 |  |
| O=S(=O)(Nc1ccc(NS(=O)(=O)c2ccccc2)cc1)c1ccccc1 [Compound 51, N-{4-[(phenylsulfonyl)amino]phenyl}benzene sulfonamide] |  |  |  |  |  | > 100 | 0.892 ± 0.067 | > 100 | 1.06 | >90 | > 100 | 1.55 | 5.5 |  |
| CCOc1ccc(NS(=O)(=O)c2ccc(Cl)cc2)cc1 [Compound 52, 4-chloro-N-(4-ethoxyphenyl)benzenesulfonamide] |  |  |  |  |  | > 100 |  | > 100 | 1.31 | >75 | > 100 | 2 | 9.6 | 3.22 |
| O=S(=O)(Nc1c(F)c(F)c(NS(=O)(=O)c2ccc(Cl)cc2)c(F)c1F)c1ccc(Cl)cc1 [Compound 59] |  |  |  |  |  | > 100 |  | > 100 | 0.0415 ± 0.0065 | >2,400 | > 100 | 0.522 ± 0.144 | 8.3 | 0.11 ± 0.023 |
